Measurements taken from US8551997B2, “Structural-based inhibitors of the glutathione binding site in aldose reductase, methods of screening therefor and methods of use” (The Board of Regents of the University of Texas System, priority 2004, dated 2013).

Legend:
[1] = test system: Caco-2 cells; experiment: Membrane-bound PKC activity in Caco-2 cells; format: cell-based, human
Description: PKC activity was measured using the Promega-Sigma TECT PKC assay system as described earlier (15). Briefly, aliquots of the reaction mixture (25 mM Tris-Hcl pH 7.5, 1.6 mg/mL phosphatidylserine, 0.16 mg/mL diacylglycerol, and 50 mM MgCl2) were mixed with […] (3,000 Ci/mmol, 10 μCi/μL) and incubated at 30° C. for 10 min. To stop the reaction, 7.5 M guanidine hydrochloride were added and the phosphorylated peptide was separated on binding paper. The extent of phosphorylation was detected by measuring radioactivity retained on the paper.

[2] = test system: C57BL/6 mice; experiment: LPS-induced cytokines in serum and heart of mice; format: in vivo, mouse
Description: At the indicated times, TNF-a, IL-6, IL-12, interferon (IFN)-g, IL-1b, and monocyte chemo attractant protein (MCP)-1 levels in serum and in heart homogenates were determined (FIGS. 6A-6D). Prostaglandin E2 (PGE-2), cyclo-oxygenase 2 (COX-2), and nitrate levels were measured separately (FIG. 6E). Solid symbols, values from the mice injected with LPS; open symbols, values from the mice treated with LPS and sorbinil.
In sorbinil-treated mice, however, serum cytokine levels increased only 2-fold, began declining within 4 h, and returned to baseline levels within 12 h.

[3] = test system: C57BL/6 mice; experiment: LPS-induced cardiac dysfunction, M-mode echocardiography; format: in vivo, mouse
[4] = test system: Caco-2 cells; experiment: PGE2 assay in Caco-2 cells; format: cell-based, human
Description: Caco-2 cells were plated in 6 well plates at a density of 2×10^5 cells/well. After 24 hours, the medium was replaced with fresh medium containing 0.1% serum with or without, sorbinil (20 μM) followed by treatment with either 10 ng/ml BFGF or PDGF, for another 24 h. HT29 cells were plated in 6 well plate at a density of 2×10^5 cells/well. After 24 hours, medium was replaced with serum-free medium with or without, sorbinil or zopolrestat (20 μM) followed by treatment with either EGF (5 ng/ml) or BFGF (10 ng/ml) for another 24 h. The medium from each cell lines was collected from each well and analyzed for PGE2 by using an Enzyme Immuno Assay kit according to the manufacturer's instructions (Cayman Chemical Co., Inc.).
Briefly, 50 μl of diluted standard/sample were pipetted into a pre-coated goat polyclonal anti-mouse IgG 96-well plate. Aliquots (50 μl) of a PGE2 monoclonal antibody and PGE2 acetylcholine esterase (AchE) conjugate, (PGE2 tracer) were added to each well and allowed to incubate at 4° C. for 24 h. After incubation, the wells were washed five times with wash buffer containing 0.05% Tween-20, followed by the addition of 200 μl of Ellman's reagent containing acetylthiocholine and 5,5′-dithio-bis-(2-nitrobenzoic acid). Samples were read after 60 min at 412 nm with an ELISA reader. In this procedure the intensity of yellow color, is proportional to the amount of PGE2 tracer bound to the well and is inversely proportional to the amount of free PGE2 present in the well during incubation.

[5] = test system: HT29 cells; experiment: HT29 cell proliferation, MTT assay; format: cell-based; details: inhibitor alone
Description: HT29 cells were grown to confluence in McCoy's medium and harvested and plated 2,500 per well in a 96-well plate. Subconfluent cells were growth arrested in 0.1% FBS with or without AR inhibitor sorbinil or zopolrestat (20 μM). After 24 hours, EGF (5 ng/ml) or BFGF (10 ng/ml) was added to the medium and the cells were incubated for another 24 hours. Cells incubated with the AR inhibitors alone served as control. Cell viability was determined by an MTT assay.

[6] = sorbinil pretreatment, LPS 4 mg/kg

(S)-6-fluorospiro[chroman-4,4′-imidazolidine]-2,5′-dione [sorbinil]
growth factor-induced increase in membrane-bound PKC activity [1]: significantly prevented | total PKC activity ([1]; sorbinil by itself): did not alter | maladaptive systemic inflammatory response in serum ([2]; sorbinil 2 h after LPS exposure): blunted | time at which serum cytokine levels began declining [2, 6]: ≤ 4 h | time at which serum cytokine levels returned to baseline [2, 6]: ≤ 12 h | increase of serum cytokine levels after LPS ([2]; sorbinil pretreatment, LPS 4 mg/kg peritoneally): 2 fold | percent fractional shortening (FS %) ([3]; at 8 h after LPS, pretreated with sorbinil): recovered significantly | general activity level of LPS-exposed mice ([3]; within 24 h): normal grooming and other activities | prevention of PGE2 production induced by BFGF and PDGF ([4]; sorbinil 20 μM, 10 ng/ml BFGF or PDGF, 24 h): > 90% | GS-DHN-induced PGE2 production ([4]; sorbinil 24 h, GS-DHN-ester 24 h): had no effect | HNE and GS-HNE-induced PGE2 production ([4]; sorbinil 24 h, aldehydes 24 h): significantly prevented | constitutive levels of PGE2 ([4]; sorbinil alone): did not inhibit | HT29 cells proliferation [5]: did not cause any effect
